“And” between values parts separate entries of the source, which are not always exact repeats. Identical values can stand only once. Peptide text beside a SMILES is read from it. * marks the point of attachment. pNA = O=[N+]([O-])c1ccc(N*)cc1; Boc = CC(C)(C)OC(=O)*
What follows are compounds tested against T1, Genome polyprotein (dengue virus type 2, UniProt P29990).
Format: functional, Thailand/16681/1984

T1 sequence (P29990 1346-1475 limits assumed): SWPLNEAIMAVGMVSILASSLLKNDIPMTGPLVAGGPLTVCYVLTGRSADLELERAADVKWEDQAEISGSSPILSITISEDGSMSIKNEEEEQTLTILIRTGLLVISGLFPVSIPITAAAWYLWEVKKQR
T1 sequence (P29990 1476-2093 limits assumed): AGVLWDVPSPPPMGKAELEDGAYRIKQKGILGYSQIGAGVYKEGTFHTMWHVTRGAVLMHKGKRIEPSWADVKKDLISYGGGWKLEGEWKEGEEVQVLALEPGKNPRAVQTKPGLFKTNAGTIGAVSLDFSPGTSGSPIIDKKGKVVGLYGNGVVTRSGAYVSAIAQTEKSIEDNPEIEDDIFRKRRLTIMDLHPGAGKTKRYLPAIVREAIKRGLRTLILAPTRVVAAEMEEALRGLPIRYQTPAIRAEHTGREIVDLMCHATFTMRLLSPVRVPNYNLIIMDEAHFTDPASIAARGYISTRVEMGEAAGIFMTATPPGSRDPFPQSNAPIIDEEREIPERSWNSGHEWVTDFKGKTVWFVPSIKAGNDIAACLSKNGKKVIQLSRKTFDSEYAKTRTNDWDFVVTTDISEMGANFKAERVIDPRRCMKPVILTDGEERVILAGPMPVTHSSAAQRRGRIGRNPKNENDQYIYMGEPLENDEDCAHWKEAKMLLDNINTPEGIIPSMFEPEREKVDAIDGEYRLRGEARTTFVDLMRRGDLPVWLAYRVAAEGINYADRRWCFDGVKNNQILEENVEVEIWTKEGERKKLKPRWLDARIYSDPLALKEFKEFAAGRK

Row | SMILES | IC50
1 | N=C(N)NCCC[C@H](NC(=O)c1nccs1)C(=O)N[C@@H](CCCCN)C(=O)N[C@@H](C(N)=O)c1ccc(OCc2ccc(C(F)(F)F)cc2)cc1 | 1.46 µM and 1.87 µM and 1.17 µM and 2.77 µM and 3.21 µM and 2.73 µM and 3 µM and 2.69 µM and 2.58 µM and 2.57 µM (2×) and 2.84 µM (2×) and 3.15 µM and 3.2 µM and 2.52 µM (2×) and 2.33 µM and 2.17 µM and 2.34 µM and 2.39 µM and 2.31 µM and 2.49 µM and 2.93 µM and 2.95 µM and 2.64 µM and 3.09 µM and 2.26 µM and 2.59 µM and 2.92 µM and 2.68 µM and 2.2 µM and 2.3 µM and 2.12 µM and 1.71 µM and 1.91 µM and 1.72 µM and 2.55 µM and 2.1 µM
2 | Nc1cc(Cl)cc(C(=O)Nc2ccc3c(c2)CNC3)c1N | > 100 µM
3 | Cc1c(C(=O)Nc2cccc(-c3nnn[nH]3)c2)sc2ccccc12 | 75.2 µM
4 | Cc1ccncc1-c1cc(CN)cc([C@@H]2C[C@H]2c2cc(Cl)cc(NC(=O)OCc3ccccc3)c2)c1 | > 100 µM
5 | O=C(Nc1ccc2c(c1)CNC2)c1cc(Br)cc2[nH]c(Cc3ccccc3)nc12 | > 100 µM and 53.9 µM
6 | O=C(O)c1cc(Cc2c[nH]c3ccc(Cl)cc23)cc(C2CC2)n1 | > 100 µM
7 | N#C[C@H](Nc1ccc2c(c1)CNC2)c1n[nH]c2cc(C(F)(F)F)ccc12 | > 100 µM
8 | N[C@H]1CCc2cc(NC(=O)c3cc(Cl)cc4[nH]ncc34)ccc21 | 59.2 µM
9 | CC(C)c1nc2c(C(=O)Nc3ccc4c(c3)CNC4)cc(Br)cc2[nH]1 | > 100 µM
10 | N#Cc1cccc(-c2nc3c(C(=O)Nc4cccnc4)cc(Cl)cc3[nH]2)c1 | > 100 µM
11 | N#Cc1cccc(-c2nc3c(C(=O)Nc4ccncc4)cc(Cl)cc3[nH]2)c1 | > 100 µM
12 | N#Cc1cccc(-c2nc3c(C(=O)Nc4ccccc4)cc(Cl)cc3[nH]2)c1 | > 100 µM
13 | N#Cc1cccc(-c2nc3c(C(=O)NCc4ccccc4)cc(Cl)cc3[nH]2)c1 | > 100 µM
14 | Cc1c(C(=O)Nc2cc(C(=O)N3CCn4nccc43)ccn2)cc(C2CC2)n1C | > 100 µM
15 | CC(C)CNC(=O)c1cc(Cl)cc2[nH]c(-c3cccc(C#N)c3)nc12 | > 100 µM
16 | O=C(Nc1cc(Cl)cc(C(=O)Nc2ncc(C3CNC3)s2)c1)OCc1ccccc1 | > 100 µM
17 | COc1ccccc1-c1nc2c(C(=O)Nc3ccc4c(c3)CNC4)cc(F)cc2[nH]1 | > 100 µM
18 | CC[C@H](CO)NC(=O)Cn1ccnc(N2CC[C@H](CO)C2)c1=O | > 100 µM
19 | NCc1cccc(NC(=O)c2cccc(CN)c2)c1 | > 100 µM
20 | CO[C@H](C)Cn1cc2c(C(=O)Nc3ccc4c(c3)CNC4)cc(Cl)cc2n1 | > 100 µM
21 | N#Cc1cccc(-c2nc3c(C(=O)NCc4ccccn4)cc(Cl)cc3[nH]2)c1 | > 100 µM
22 | N#Cc1cccc(-c2nc3c(C(=O)NCc4cccnc4)cc(Cl)cc3[nH]2)c1 | > 100 µM
23 | NCc1csc2cc(C(=O)Nc3ccc4c(c3)CNC4)ccc12 | 83.1 µM and > 100 µM
24 | O=C(Nc1cc(Cl)cc(-c2cc3cc(C(=O)O)ncn3c2)c1)OCc1ccccc1 | 50.1 µM
25 | NCc1cc(Cl)cc(C(=O)Nc2cccc(-c3nn[nH]n3)c2)c1 | > 100 µM
26 | O=C(NCc1cccnc1)[C@H](Nc1ccc2c(c1)CNC2)c1cc(Cl)cc2[nH]ncc12 | > 100 µM
27 | N[C@H]1CCN(c2ccc(NS(=O)(=O)c3ccc(Oc4ccccc4Cl)cc3)cc2)C1 | > 100 µM
28 | O=C(Nc1ccc2c(c1)CNC2)c1cc(Cl)cc2c1NCCC2 | > 100 µM
29 | COc1ccc(S(=O)(=O)n2nc(OC(=O)c3ccccc3)cc2N)cc1 | 2.53 µM and 2.17 µM and 3.95 µM and 3.07 µM (2×) and 2.23 µM and 3.29 µM and 3.81 µM and 2.28 µM

Target: T1, Genome polyprotein
Format: functional, Thailand/16681/1984
Remark: another data set of the same source

Row | SMILES | IC50
30 | Cc1cc(C(=O)Nc2ccc3c(c2)CNC3)c2cn[nH]c2c1 | > 99.5 µM
31 | Cc1ccc(S(=O)(=O)CNC(=O)[C@H](Nc2ccc3c(c2)CNC3)c2cc(Cl)cc3[nH]ncc23)cc1 | > 99.5 µM
32 | CC(C)(C)c1ccc(Cl)cc1C(=O)Nc1ccc2c(c1)CNC2 | > 99.5 µM
33 | Cc1n[nH]c2nc(Cl)cc(C(=O)Nc3ccc4c(c3)CNC4)c12 | > 99.5 µM
34 | O=C(Cc1cccc2[nH]ncc12)Nc1ccc2c(c1)CNC2 | > 99.5 µM
35 | C=C1C[C@H](c2cccc(CN)c2)[C@@H](c2cc(Cl)cc(NC(=O)OCc3ccccc3)c2)C1 | > 99.5 µM
36 | O=C(Nc1ccc2c(c1)CNC2)c1cc(Cl)ccc1SC1CCCC1 | > 99.5 µM
37 | O=C(Nc1ccc2c(c1)CNC2)c1cc(F)cc2[nH]nnc12 | > 99.5 µM
38 | COC(=O)CNC(=O)[C@H](Nc1ccc2c(c1)CNC2)c1cc(Cl)cc(C2CC2)c1 | > 99.5 µM
39 | Cc1c(C(=O)Nc2cc(CCCN)ccn2)cc(-c2ccccc2)n1C | > 99.5 µM
40 | O=C(Nc1ccc2c(c1)CNC2)N1C[C@H](C(F)F)C2(CC2)C1 | > 99.5 µM
41 | Cc1c(C(=O)Nc2cc(CCCN)ccn2)cc(C#N)n1C | > 99.5 µM
42 | CC(C)NC(=O)[C@H](Nc1ccc2c(c1)C(=O)OC2)c1cc(Cl)cc2[nH]ncc12 | > 99.5 µM
43 | CC(C)NC(=O)[C@H](Nc1ccc2c(c1)CNC2)c1cc(Cl)cc2[nH]c(-c3ccccc3)nc12 | 10.2 µM and 4.1 µM and 35.8 µM
44 | O=C1OCc2ccc(NC(=O)[C@H]3CCNC34CCCC4)cc21 | > 99.5 µM
45 | C=CC[C@H](Nc1cc([C@H]2CCOC2)ccn1)c1cc(C2CC2)n(C)n1 | > 99.5 µM
46 | O=C(Nc1ccc2c(c1)CNC2)c1cc(Cl)cc2nn[nH]c12 | > 99.5 µM
47 | O=C(Nc1ccc2c(c1)CNC2)c1cc(F)cc(C=C2CCS(=O)(=O)CC2)c1 | > 99.5 µM
48 | O=Cc1ccc(N2CCC(C(=O)N3CCC(N4CCc5ccccc5C4)CC3)CC2)cc1 | > 99.9 µM
49 | Cc1c(C(=O)Nc2ccc3c(c2)C(=O)N(C)C3)cc(C2CC2)n1C | > 99.5 µM
50 | Cc1cc(NC(=O)c2cc(C3CC3)n(C)c2C)ccc1N1CCCC1=O | > 99.5 µM
51 | Cc1c(C(=O)Nc2ccc3c(c2)CCCC(=O)N3)cc(C2CC2)n1C | > 99.5 µM
52 | CS(=O)(=O)Nc1cccc(C(=O)Nc2ccc3c(c2)CNC3)c1 | > 99.5 µM
53 | O=C(Nc1ccc2c(c1)CNC2)c1cc(F)cc(C2=CCCOC2)c1 | > 99.5 µM

Row | SMILES | IC50
54 | Cc1c(C(=O)Nc2cccc(-c3ccc(=O)[nH]n3)c2)cc(C2CC2)n1C | > 99.5 µM
55 | COC(=O)[C@H](C)n1cc2c(C(=O)Nc3ccc4c(c3)CNC4)cc(Cl)cc2n1 | > 99.5 µM
56 | O=Cc1ccc(N2CCC(C(=O)NC[C@H](O)c3ccc(O)c(O)c3)CC2)cc1 | 33.4 µM
57 | C=CC[C@H]1NCc2cc(NC(=O)c3ccc4c(c3)CC(=O)N4)ccc21 | > 99.5 µM
58 | CC(C)c1nn(C)cc1-c1cc(F)cc(C(=O)Nc2ccc3c(c2)CNC3)c1 | > 99.5 µM
59 | Brc1cc(CNc2ccc3c(c2)CNC3)c2cc[nH]c2c1 | > 99.5 µM
60 | COc1cc(C(=O)Nc2ccc3c(c2)CNC3)cc2ccoc12 | > 99.5 µM
61 | O=C1OCc2ccc(NC(=O)c3cc(F)cc4[nH]ncc34)cc21 | > 99.5 µM
62 | O=Cc1ccc(N2CCC(C(=O)N3CCC(CCN4CCCC4)CC3)CC2)cc1 | > 99.9 µM
63 | O=Cc1ccc(N2CCC(C(=O)NCCc3ccccc3[N+](=O)[O-])CC2)cc1 | 93.9 µM
64 | CCSc1ccc(Cl)cc1C(=O)Nc1ccc2c(c1)CNC2 | > 99.5 µM
65 | Cc1c(CN)c(C(=O)Nc2cc(-c3cccnc3)ccn2)nn1C | > 99.5 µM
66 | Cc1cccc(-c2nc3c(C(=O)Nc4ccc5c(c4)CNC5)cc(F)cc3[nH]2)c1 | 8.87 µM and 6.46 µM
67 | Cc1ccccc1-c1nc2c(C(=O)Nc3ccc4c(c3)CNC4)cc(F)cc2[nH]1 | 3.46 µM and 3.38 µM
68 | O=Cc1ccc(N2CCC(C(=O)NC[C@@H]3CCCN4CCCC[C@H]34)CC2)cc1 | > 99.9 µM
69 | O=C(Nc1cc(-c2cccnc2)ccn1)c1nc(Br)n2c1CNCC2 | > 99.5 µM
70 | O=C(Nc1ccc2c(c1)CNC2)c1cc(F)cc2[nH]c(-c3cnccc3O)nc12 | 69.7 µM
71 | O=C(Nc1ccc2c(c1)CNC2)c1cc(Cl)cc2c1cnn2C[C@H]1CCCO1 | > 99.5 µM
72 | C[C@]1(O)C(=O)Nc2cc(F)cc(C(=O)Nc3ccc4c(c3)CNC4)c21 | > 99.5 µM
73 | O=C(NCC1CCCCC1)[C@H]1CCCN1C(=O)Nc1ccc2c(c1)CNC2 | > 99.5 µM
74 | O=C1Cc2c(cc(F)cc2C(=O)Nc2cc([C@H]3CCOC3)ccn2)N1 | > 99.5 µM
75 | Cc1c(C(=O)Nc2ccc3c(c2)CS(=O)(=O)C3)cc(C2CC2)n1C | > 99.5 µM
76 | N#C[C@H](Nc1ccc2c(c1)CNC2)c1cc(Cl)cc2c1OCC2 | > 99.5 µM
77 | O=C(Nc1cc(-c2cccnc2)ccn1)c1cc2n(c1)CCC2 | > 99.5 µM

Row | SMILES | IC50
78 | CCc1cc(C(=O)Nc2ccc3c(c2)CNC3)cc2cn[nH]c12 | > 99.5 µM
79 | O=C(Nc1ccc2c(c1)CNC2)c1cc(Cl)cc(C(F)(F)F)n1 | 22.5 µM
80 | O=C(Nc1ccc2c(c1)CNC2)c1cccc2c1OCO2 | > 99.5 µM
81 | O=Cc1ccc(N2CCC(C(=O)NCC(=O)c3ccc(O)cc3)CC2)cc1 | 52.9 µM
82 | O=C(Nc1ccc2c(c1)CNC2)c1cccc2nc(C(F)(F)F)[nH]c12 | > 99.5 µM
83 | Cc1c(C(=O)Nc2cc(-c3cccnc3)ccn2)c2ccccc2n1C | > 99.5 µM
84 | C#C[C@H](Nc1ccc2c(c1)CNC2)c1cccc2c1CCNC2=O | > 99.5 µM
85 | O=C(Nc1ccc2c(c1)CNC2)c1cc(F)c2[nH]nnc2c1 | > 99.5 µM
86 | Cc1c(C(=O)Nc2cccc(-c3cncnc3O)c2)cc(C2CC2)n1C | > 99.5 µM
87 | O=Cc1ccc(N2CCC(C(=O)N3CCN(c4cccc(O)c4)CC3)CC2)cc1 | 78.2 µM
88 | O=C1CC[C@H]2[C@H](CCN2C(=O)c2ccc3c(c2)CNC3)N1 | > 99.5 µM
89 | COCCNC(=O)[C@H](Nc1cccc([C@H]2CCOC2)c1)c1cc(Br)cc2[nH]ccc12 | > 99.5 µM
90 | O=C(Nc1ccc2c(c1)CNC2)c1cc(F)c2[nH]c(=O)[nH]c2c1 | > 99.5 µM
91 | O=Cc1ccc(N2CCC(C(=O)N3CCN(CCc4ccccc4)CC3)CC2)cc1 | 35.6 µM
92 | O=C1C[C@H]2CN(C(=O)Nc3ccc4c(c3)CNC4)CC[C@H]2N1 | > 99.5 µM
93 | O=C(NCC(F)F)[C@H](Nc1ccc2c(n1)CNC2)c1cc(Cl)cc(C2CC2)c1 | > 296 µM
94 | Cc1cc(NC(=O)c2cc(C3CC3)n(C)c2C)cnc1N1CCCCC1 | > 99.5 µM
95 | Clc1ccc2[nH]ncc2c1[C@@H]1C[C@H]1c1ccc2c(c1)CNC2 | > 99.5 µM
96 | Cc1cc(C(=O)Nc2cc(-c3cccnc3)ccn2)nn1CCN | > 99.5 µM
97 | COc1ccc(S(=O)(=O)n2nc(OC(=O)c3ccccc3)cc2N)cc1 | 3.47 µM
98 | CSCC[C@H](NC(=O)OC(C)(C)C)C(=O)N1CCC[C@H]1C(=O)Nc1ccc([N+](=O)[O-])cc1 (Boc-Met-Pro-pNA) | > 99.5 µM
99 | CSCC[C@H](N)C(=O)N1CCC[C@H]1C(=O)Nc1ccc([N+](=O)[O-])cc1 (H-Met-Pro-pNA) | > 99.5 µM
100 | O=C(Nc1ccccc1)OCc1ccccc1 [BENZYL PHENYLCARBAMATE] | > 99.5 µM
101 | O=C(Nc1ccccc1)Oc1ccccc1 [PHENYL PHENYLCARBAMATE] | > 59.8 µM
